Measurements from article PMC10353390, “Biological and Structural Analyses of New Potent Allosteric Inhibitors of HIV-1 Integrase” (Antimicrobial Agents and Chemotherapy, 2023).

Assays:
[1] = test system: primary HIV-1 isolates with polymorphisms at IN positions 124 and 125; experiment: Multiple-round infection of MT4 cells with primary HIV-1 isolates polymorphic at IN positions 124 and 125; type: cell-based; settings: primary isolate
Method: Next, we evaluated the potency of the BDM-2 series of INLAIs against several primary HIV-1 isolates with polymorphisms at IN positions 124 and 125.
(§1) MT4 cells growing exponentially at the density of 10^6/mL were infected with HIV-1 strain NL4-3 at a multiplicity of infection (MOI) of 0.001 for 2 h in the presence of different concentrations of compounds, and the CellTiter-Glo luminescent reagent (Promega) was used to quantify cell viability as described previously ([12]).

[2] = test system: HXB2 HIV-1 strain; experiment: Multiple-round infection assay in MT4 cells, HXB2; type: cell-based; settings: Human immunodeficiency virus 1, HXB2; multiple-round infection, MT4 cells; mean ± SD, n > 5; read-out: EC50 HXB2
Method: Antiretroviral activity of BDM-2 and its analogs was first evaluated in lymphoblastoid cell line MT4 and in primary human T lymphocytes using NL4-3 and HXB2 laboratory HIV-1 isolates.
as §1

[3] = target: HIV-1 IN-LEDGF/p75 interaction (Human immunodeficiency virus type 1 group M subtype B, UniProt P12497); experiment: biochemical
[4] = test system: VSV-G-pseudotyped NL4-3Δenv-luc; experiment: microbe, parasite or virus in culture; type: cell-based, HIV-1
[5] = test system: recombinant NL4-3 viruses with polymorphisms at IN positions 124 and 125; experiment: Multiple-round infection of MT4 cells with recombinant NL4-3 viruses polymorphic at IN positions 124 and 125; type: cell-based, HIV-1
Excerpt: Located on the HIV-1 IN CCD dimerization interface, the principal INLAI binding pocket overlaps with a hot spot of amino acid sequence polymorphism involving IN residues 124 and 125 ([16]). To test if the new INLAIs maintained antiviral activity against major polymorphisms, we introduced all major combinations of residues found in circulating HIV-1 strains at positions 124 and 125 into NL4-3 HIV-1 molecular clone. In total, we evaluated 15 such combinations that collectively covered 98% of all HIV-1 clade polymorphisms involving these positions ([48]). To gauge effects on the antiviral activity, we calculated the EC50 fold change (FC) relative to wild type NL4-3 HIV-1 strain that features Thr124 and Thr125 (TT; specific polymorphisms are referred to by a single letter amino acid code).
as §1

[6] = target: T1, HIV-1 IN (Human immunodeficiency virus type 1 group M subtype B, UniProt P12497); experiment: HTRF IN multimerization assay; type: biochemical; settings: mean ± SD
T1 construct: made in house
Excerpt: A key property of INLAIs is the ability to promote HIV-1 IN homo-multimerization ([39][–][42]). […] The maximal signal (plateau) in our IN aggregation assay corresponds to the highest HTRF signal increase under saturating INLAI concentration, relative to baseline level. Thus, MUT916, MUT884, MUT871, and MUT872 increased HIV-1 IN aggregation 3.7 to 4.4-fold, while BDM-2, BI-224436, and S-I-82 did so 5 to 6-fold (Table 1).

[7] = test system: NL4-3 HIV-1 strain; experiment: Multiple-round infection assay in MT4 cells, NL4-3; type: cell-based; settings: MT4 cells
[8] = test system: NL4-3 HIV-1 with INLAI-selected IN single point mutations; type: cell-based
[9] = Cytotoxicity assay in MT4 cells; type: cell-based; settings: human, MT4 cells (proliferating human T-cell line), CellTiter-Glo
Excerpt: Growth inhibition was monitored in a proliferating human T-cell line (MT4) with different concentrations of compounds, using the CellTiter-Glo luminescent reagent (Promega), as previously described ([12]).

[10] = target: CCD of HIV-1 IN and IBD of LEDGF/p75 (Human immunodeficiency virus type 1 group M subtype B, UniProt P12497); experiment: biochemical
[11] = test system: HIV-1 strains resistant to INSTIs, NRTIs, NNRTIs or PIs; type: cell-based
Method: To this end, we used both recombinant viruses constructed by introducing described drug resistance mutations into NL4-3 HIV-1 clone as well as drug-resistant clinical HIV-1 isolates.
as §1

[12] = INSTI-resistant, NL4-3 background

## Cc1ccc(C2CC2)c(-c2cc(F)c3c(c2C)CCCO3)c1[C@H](OC1CC1)C(=O)O [MUT916]
[1]; IN 124/125 AA
  Fold change in EC50 relative to parental NL4-3, CAM2BBY (CRF02): 1
  Fold change in EC50 relative to parental NL4-3, E0836M4 (D): 1
  Fold change in EC50 relative to parental NL4-3, KER2008 (A): 1
  Fold change in EC50 relative to parental NL4-3, NP1525 (CRF01): 1
  Fold change in EC50 relative to parental NL4-3, NP1695 (CRF02): 2
  Fold change in EC50 relative to parental NL4-3, TZA125 (C): 0.4
[1]; IN 124/125 GA
  Fold change in EC50 relative to parental NL4-3, KSM4030 (A): 1
  Fold change in EC50 relative to parental NL4-3, vGA (C): 5
[1]; IN 124/125 NA
  Fold change in EC50 relative to parental NL4-3, 99ET14 (C): 2
  Fold change in EC50 relative to parental NL4-3, NP1538 (B): 2
  Fold change in EC50 relative to parental NL4-3, vNA_1 (B): 4
  Fold change in EC50 relative to parental NL4-3, vNA_2 (CRF02): 10
[1]; IN 124/125 NV
  Fold change in EC50 relative to parental NL4-3, vNV (B): 1
[1]; IN 124/125 SA
  Fold change in EC50 relative to parental NL4-3, vSA_1 (B): 3
  Fold change in EC50 relative to parental NL4-3, vSA_2 (CRF02): 4
[1]; IN 124/125 TA
  Fold change in EC50 relative to parental NL4-3, vTA_1 (B): 2
  Fold change in EC50 relative to parental NL4-3, vTA_2 (CRF02): 2
[2]
  EC50: 8.8 ± 0.8 nM
[3]
  IC50: 46 ± 16 nM
[4]
  EC50 ratio (single/multiple-round infection): 105
[4]; Human immunodeficiency virus 1, NL43, MT4, read-out: EC50 in single-round infection
  EC50: 2100 ± 200 nM
[5]; recombinant NL4-3, IN 124/125 AA
  Fold change in EC50 relative to parental NL4-3, AA: 1
[5]; recombinant NL4-3, IN 124/125 AM
  Fold change in EC50 relative to parental NL4-3, AM: 0.2
[5]; recombinant NL4-3, IN 124/125 AT
  Fold change in EC50 relative to parental NL4-3, AT: 0.5
[5]; recombinant NL4-3, IN 124/125 AV
  Fold change in EC50 relative to parental NL4-3, AV: 0.4
[5]; recombinant NL4-3, IN 124/125 GA
  Fold change in EC50 relative to parental NL4-3, GA: 1
[5]; recombinant NL4-3, IN 124/125 GT
  Fold change in EC50 relative to parental NL4-3, GT: 1
[5]; recombinant NL4-3, IN 124/125 NA
  Fold change in EC50 relative to parental NL4-3, NA: 4
[5]; recombinant NL4-3, IN 124/125 NT
  Fold change in EC50 relative to parental NL4-3, NT: 1
[5]; recombinant NL4-3, IN 124/125 NV
  Fold change in EC50 relative to parental NL4-3, NV: 0.4
[5]; recombinant NL4-3, IN 124/125 SA
  Fold change in EC50 relative to parental NL4-3, SA: 1
[5]; recombinant NL4-3, IN 124/125 ST
  Fold change in EC50 relative to parental NL4-3, ST: 1
[5]; recombinant NL4-3, IN 124/125 TA
  Fold change in EC50 relative to parental NL4-3, TA: 1
[5]; recombinant NL4-3, IN 124/125 TM
  Fold change in EC50 relative to parental NL4-3, TM: 0.2
[5]; recombinant NL4-3, IN 124/125 TV
  Fold change in EC50 relative to parental NL4-3, TV: 0.4
[6]; concentration for 50% maximum activation of multimerization
  AC50: 22 ± 2 nM
[6]; maximum multimerization reached versus baseline
  IN multimerization Plateau: 370 ± 60%
[7]; Human immunodeficiency virus 1, NL43, multiple-round infection, from dose response curves, read-out: EC90 NL4-3
  EC90: 30 ± 15 nM
[7]; Human immunodeficiency virus 1, NL43, multiple-round infection, mean ± SD, n > 5, read-out: EC50 NL4-3
  EC50: 20 ± 9 nM
[7]
  Selectivity index CC50/EC50 NL4-3: 3,900
[8]
  EC50 fold change compared to wild type NL4-3, A128T: 4
  EC50 fold change compared to wild type NL4-3, H171Q: 1
  EC50 fold change compared to wild type NL4-3, N222K: 3
  EC50 fold change compared to wild type NL4-3, T174I: 14
  EC50 fold change compared to wild type NL4-3, Y99H: 3
[9]
  CC50: 78000 ± 6000 nM
[10]
  IC50: 19 ± 8 nM
[11]; [12]
  Fold change in EC50 relative to NL4-3, E92Q: 1
  Fold change in EC50 relative to NL4-3, G140S: 1
  Fold change in EC50 relative to NL4-3, G140S/Q148H: 1
  Fold change in EC50 relative to NL4-3, N155H: 1
  Fold change in EC50 relative to NL4-3, Q148H: 1
  Fold change in EC50 relative to NL4-3, Y143R: 0.4
[11]; NRTI-resistant clone
  Fold change in EC50 relative to NL4-3, NLAY351717: 1
[11]; NRTI/NNRTI-resistant clone
  Fold change in EC50 relative to NL4-3, NLAY351753: 2
[11]; NRTI/NNRTIs group, NL4-3 background
  Fold change in EC50 relative to NL4-3, K103N/Y181C: 1
[11]; PI-resistant virus
  Fold change in EC50 relative to NL4-3, ARP-4595: 2
  Fold change in EC50 relative to NL4-3, ARP-4596: 1
  Fold change in EC50 relative to NL4-3, ARP-11801: 2
  Fold change in EC50 relative to NL4-3, ARP-11803: 2
  Fold change in EC50 relative to NL4-3, ARP-11807: 2
  Fold change in EC50 relative to NL4-3, ARP-11808: 2
